Measured values reported in ChEMBL document CHEMBL4622901, “Vinyl sulfone-based inhibitors of trypanosomal cysteine protease rhodesain with improved antitrypanosomal activities” (Bioorg Med Chem Lett, 2020).

Columns and labels:
[1] = Selectivity index, ratio of CC50 for human HepG2 cells to EC50 for Trypanosoma brucei; type: toxicity; conditions: read-out: Ratio CC50/EC50
[2] = Cytotoxicity against human HepG2 cells assessed as reduction in cell viability; type: cell-based
[3] = tested on: Trypanosoma brucei; assay: Antitrypanosomal activity against Trypanosoma brucei; type: functional, organism-based
[4] = target: Rhodesain (Trypanosoma brucei rhodesiense) (UniProt Q95PM0); assay: Inhibition of Trypanosoma brucei rhodesain at 10 uM measured after 1 hr relative to control
Rhodesain (Trypanosoma brucei rhodesiense), sequence (Q95PM0 1-450): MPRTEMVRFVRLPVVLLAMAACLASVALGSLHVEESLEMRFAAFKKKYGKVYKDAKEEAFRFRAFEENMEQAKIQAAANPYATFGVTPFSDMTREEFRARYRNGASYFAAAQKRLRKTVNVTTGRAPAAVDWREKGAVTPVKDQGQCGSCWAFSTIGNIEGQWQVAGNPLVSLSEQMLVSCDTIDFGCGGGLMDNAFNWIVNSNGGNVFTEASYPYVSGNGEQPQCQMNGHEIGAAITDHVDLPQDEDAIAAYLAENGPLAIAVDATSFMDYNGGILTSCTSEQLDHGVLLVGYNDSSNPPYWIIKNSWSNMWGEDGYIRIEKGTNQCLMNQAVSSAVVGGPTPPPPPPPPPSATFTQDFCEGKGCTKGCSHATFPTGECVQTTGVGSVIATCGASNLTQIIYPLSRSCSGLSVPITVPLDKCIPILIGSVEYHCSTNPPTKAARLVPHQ

[5] = target: Rhodesain (Trypanosoma brucei rhodesiense) (UniProt Q95PM0); assay: Inhibition of Trypanosoma brucei rhodesain assessed as Kinact/Ki ratio

EC50 [3]	inhibition [4]	kinact/Ki [5]	Structure (SMILES)	selectivity ratio [1]	CC50 [2]
1.88 µM			CC1=CC(C)(C)Nc2c(C(=O)N[C@H](/C=C/S(=O)(=O)c3ccccc3)CCc3ccccc3)cccc21	> 160	> 300 µM
6.2 µM	96.2%	108 M⁻¹ s⁻¹	CCCC[C@@H](/C=C/S(=O)(=O)c1ccccc1)NC(=O)c1cccc2cccnc12	6.38	36.5 µM
3.02 µM			C[C@H]1CC(C)(C)Nc2c(C(=O)N[C@H](/C=C/S(=O)(=O)c3ccccc3)CCc3ccccc3)cccc21	> 99.3	> 300 µM
7.98 µM			CC(C)C[C@@H](/C=C/S(=O)(=O)c1ccccc1)NC(=O)c1cccc2cccnc12	1.89	15.1 µM
5.97 µM	100%		O=C(N[C@H](/C=C/S(=O)(=O)c1ccccc1)CCc1ccccc1)c1cccc2cccnc12	> 13.4	> 80 µM
11.7 µM			O=C(N[C@H](/C=C/S(=O)(=O)c1ccccc1)Cc1ccccc1)c1cccc2cccnc12	2.16	25.3 µM
19.6 µM			Cc1ncn(C)c1C(=O)N[C@H](/C=C/S(=O)(=O)c1ccccc1)CCc1ccccc1	1.76	34.4 µM
0.004 µM			Cc1ccc(C(=O)Nc2ccc(S(=O)(=O)O)c3cc(S(=O)(=O)O)cc(S(=O)(=O)O)c23)cc1NC(=O)c1cccc(NC(=O)Nc2cccc(C(=O)Nc3cc(C(=O)Nc4ccc(S(=O)(=O)O)c5cc(S(=O)(=O)O)cc(S(=O)(=O)O)c45)ccc3C)c2)c1 [SURAMIN]		
0.69 µM	100%		O=C(N[C@H](/C=C/S(=O)(=O)c1ccccc1)CCc1ccccc1)c1ccc([N+](=O)[O-])s1	18	12.4 µM
9.23 µM	93.5%	82.1 M⁻¹ s⁻¹	CCC[C@@H](/C=C/S(=O)(=O)c1ccccc1)NC(=O)c1cccc2cccnc12	> 8.66	> 80 µM
5.9 µM	99.1%	293 M⁻¹ s⁻¹	O=C(N[C@H](/C=C/S(=O)(=O)c1ccccc1)CCc1ccccc1)c1cccc2nccnc12	6.71	39.6 µM
7.04 µM	91.9%	59 M⁻¹ s⁻¹	Cn1cc([N+](=O)[O-])nc1C(=O)N[C@H](/C=C/S(=O)(=O)c1ccccc1)CCc1ccccc1	4.08	28.8 µM
0.11 µM	78.1%		O=C(N[C@H](/C=C/S(=O)(=O)c1ccccc1)CCc1ccccc1)c1ccc([N+](=O)[O-])o1	47	5.17 µM
6.3 µM	100%	245 M⁻¹ s⁻¹	O=C(N[C@H](/C=C/S(=O)(=O)c1ccccc1)CCc1ccccc1)c1cccc2c1NCCC2	> 25	> 160 µM
			COc1cc([C@@H]2c3cc4c(cc3[C@H](O)[C@H]3COC(=O)[C@H]23)OCO4)cc(OC)c1OC [PODOFILOX]		< 0.5 µM
14.3 µM			O=C(NC/C=C/S(=O)(=O)c1ccccc1)c1cccc2cccnc12	3.86	55.5 µM
> 20 µM			O=C(Cc1ccccn1)N[C@H](/C=C/S(=O)(=O)c1ccccc1)CCc1ccccc1		37.9 µM
6.94 µM	99.3%	161 M⁻¹ s⁻¹	O=C(N[C@H](/C=C/S(=O)(=O)c1ccccc1)CCc1ccccc1)[C@@H]1CSCN1	11.2	77.8 µM
